As usually defined, the IC50 is the midpoint of a concentration-inhibition curve.

One assay has as its target T1, Human NPY1 receptor (Homo sapiens, UniProt P25929).
T1 construct: host or cells: SK-N-MC cells
T1 sequence (P25929 1-384): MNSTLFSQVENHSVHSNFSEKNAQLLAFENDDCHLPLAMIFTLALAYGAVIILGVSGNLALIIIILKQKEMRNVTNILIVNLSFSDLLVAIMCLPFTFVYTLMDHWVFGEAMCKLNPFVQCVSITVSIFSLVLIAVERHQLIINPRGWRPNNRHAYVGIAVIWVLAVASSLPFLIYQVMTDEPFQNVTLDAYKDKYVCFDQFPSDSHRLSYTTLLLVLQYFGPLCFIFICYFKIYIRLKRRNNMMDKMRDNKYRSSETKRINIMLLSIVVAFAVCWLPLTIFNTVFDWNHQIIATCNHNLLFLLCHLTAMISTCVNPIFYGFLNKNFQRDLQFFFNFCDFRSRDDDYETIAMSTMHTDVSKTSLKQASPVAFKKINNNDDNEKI
Description: Human NPY1 receptor binding assay ([125I]PYY, SK-N-MC cells). The note with it: [125I]PYY, SK-N-MC cells; read-out: hNPYI IC50. The method, then: A. Human NPY1 Receptor Binding Assay
This is a modification of Gordon et al., (J. Neurochem. 55:506-513, 1990). SK-N-MC cell (ATCC, Rockville, Md.) were plated in 24-well plates. Once confluent, cells were rinsed with Dulbecco's phosphate buffered saline (DPBS). Cells were then preincubated in binding buffer containing serum-free DMEM, 25 mM HEPES (pH 7.3), 0.5% bovine serum albumin (BSA), 0.1% bacitracin and 0.1 mM phenylmethylsulfonylfluoride for 30 minutes at room temperature. Drug dilution and [125I]PYY (˜50 pM: NEN-DuPont) were added to the wells, and the cells were incubated for an additional 3 hours at room temperature, followed by rinsing with ice-cold DPBS. Nonspecific binding was defined with 1 μM NPY. After lysing the cells with 1% Triton X-100, the amount of radioactivity in the lysates was quantitated with a gamma counter.

For the next assay, the target named is T2, Human NPY5 receptor (Homo sapiens, UniProt Q15761).
T2 sequence (Q15761 1-445): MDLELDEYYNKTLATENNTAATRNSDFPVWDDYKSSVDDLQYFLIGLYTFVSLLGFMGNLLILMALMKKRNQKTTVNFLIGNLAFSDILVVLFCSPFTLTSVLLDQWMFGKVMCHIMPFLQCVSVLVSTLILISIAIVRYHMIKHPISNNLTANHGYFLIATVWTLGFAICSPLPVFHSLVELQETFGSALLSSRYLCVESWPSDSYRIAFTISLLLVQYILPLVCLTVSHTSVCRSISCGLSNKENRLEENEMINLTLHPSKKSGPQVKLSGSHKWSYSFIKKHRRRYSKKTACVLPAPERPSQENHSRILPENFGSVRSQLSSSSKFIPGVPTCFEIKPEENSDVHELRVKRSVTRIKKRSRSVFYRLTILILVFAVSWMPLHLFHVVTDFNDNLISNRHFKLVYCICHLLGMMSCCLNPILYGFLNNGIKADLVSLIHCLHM
Description: Human NPY5 receptor binding assay ([125I]PYY, membrane protein). In short, it runs like this: (§1)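 Membrane protein incubated 2 h at room temperature with 75-100 pM porcine [125I]PYY and compound in pH 7.4 Tris buffer with salts, 0.1% BSA and bacitracin. Nonspecific binding with 1 μM PYY. Filtration, then gamma or scintillation counting.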

Another assay addresses T3, Rat NPY5 receptor (Rattus norvegicus, UniProt Q63634).
T3 sequence (Q63634 1-445): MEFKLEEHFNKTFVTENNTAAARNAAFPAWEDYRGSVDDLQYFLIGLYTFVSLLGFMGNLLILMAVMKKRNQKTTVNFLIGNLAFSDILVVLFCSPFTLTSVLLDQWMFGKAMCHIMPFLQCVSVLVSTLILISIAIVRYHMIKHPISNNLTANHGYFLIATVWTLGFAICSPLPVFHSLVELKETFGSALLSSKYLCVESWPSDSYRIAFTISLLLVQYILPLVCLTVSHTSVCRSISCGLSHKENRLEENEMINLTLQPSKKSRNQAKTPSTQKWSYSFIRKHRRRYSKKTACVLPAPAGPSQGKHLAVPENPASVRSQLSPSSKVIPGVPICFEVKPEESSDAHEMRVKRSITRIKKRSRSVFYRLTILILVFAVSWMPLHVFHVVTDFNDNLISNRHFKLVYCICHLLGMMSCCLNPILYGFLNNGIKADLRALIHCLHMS
Description: Rat NPY5 receptor binding assay ([125I]PYY, membrane protein). The procedure, abridged: as §1

The next assay deals with human Y4/PP1 receptor (Homo sapiens, UniProt P50391). Description: Human Y4/PP1 receptor binding assay ([125I]human PP, membrane protein). The note with it: [125I]human PP, membrane protein; read-out: hNPY4 IC50. The method, then: B. Human Y2 and Y4/PP1 Receptor Binding Assays
Binding assays were performed on GF/C Millipore 96-well plates pretreated with 0.02% polyethylenimine. The binding buffer for rat Y2 binding is Krebs-Ringer bicarbonate (pH 7.4) containing 0.01% BSA and 0.005% bacitracin. Samples consist of membrane protein, 25 pM [1251]PYY and drug dilution. Nonspecific binding is defined by 1 μM NPY. The binding buffer for human Y4/PP1 binding consists of 137 mM NaCl, 5.4 mM KCl, 0.44 mM KH2PO4, 1.26 mM CaCl2, 0.81 mM MgSO4, 20 mM HEPES, 1 mM dithiothreitol, 0.1% bacitracin, 100 mg/l streptomycin sulfate, 1 mg/l aprotinin, 10 mg/ml soybean trypsin inhibitor and 0.3% BSA, pH 7.4. Samples consist of membrane protein, 50 pM human [1251]human PP (hPP: NEN DuPont, Boston, Mass.) and drug dilution. 1 μM hPP is used to define nonspecific binding.
After a 2 hour incubation at room temperature with constant mixing, the samples are aspirated on a vacuum manifold, and rinsed with ice-cold binding buffer. The amount of radioactivity in each well is quantitated with either gamma counting or liquid scintillation.

Another assay deals with T4, Y2 receptor (Homo sapiens, UniProt P49146).
T4 sequence (P49146 1-381): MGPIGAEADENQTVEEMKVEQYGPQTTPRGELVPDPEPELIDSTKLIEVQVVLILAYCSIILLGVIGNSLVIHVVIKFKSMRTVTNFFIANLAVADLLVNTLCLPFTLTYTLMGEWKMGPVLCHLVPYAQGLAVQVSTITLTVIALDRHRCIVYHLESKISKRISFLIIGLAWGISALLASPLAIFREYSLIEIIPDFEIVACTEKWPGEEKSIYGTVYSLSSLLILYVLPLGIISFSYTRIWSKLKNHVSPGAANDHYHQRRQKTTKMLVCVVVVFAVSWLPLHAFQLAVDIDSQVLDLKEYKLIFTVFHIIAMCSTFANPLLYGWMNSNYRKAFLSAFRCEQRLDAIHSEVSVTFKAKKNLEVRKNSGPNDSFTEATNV
Description: Y2 receptor binding assay ([125I]PYY, membrane protein). The note with it: [125I]PYY, membrane protein; read-out: hNPY2 IC50. The procedure, abridged: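 Filtration binding with membrane protein and drug dilution, 2 h at room temperature with mixing, radioactivity counted by gamma or scintillation. Y2: 25 pM [125I]PYY in Krebs-Ringer bicarbonate pH 7.4 with 0.01% BSA, nonspecific by 1 μM NPY. Y4/PP1: 50 pM [125I]hPP in HEPES-buffered saline pH 7.4 with protease inhibitors and 0.3% BSA, nonspecific by 1 μM hPP.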

Setting [1] is: [125I]PYY, read-out: hNPY5 IC50.
Setting [2] is: [125I]PYY, read-out: rNPY5 IC50.

SMILES strings stand for the structures. Where a name gives a salt, the structure may show the parent alone. Read-outs that look alike come from different tables or passages of the source.

Sequence of human Y4/PP1 receptor (P50391 whole entry): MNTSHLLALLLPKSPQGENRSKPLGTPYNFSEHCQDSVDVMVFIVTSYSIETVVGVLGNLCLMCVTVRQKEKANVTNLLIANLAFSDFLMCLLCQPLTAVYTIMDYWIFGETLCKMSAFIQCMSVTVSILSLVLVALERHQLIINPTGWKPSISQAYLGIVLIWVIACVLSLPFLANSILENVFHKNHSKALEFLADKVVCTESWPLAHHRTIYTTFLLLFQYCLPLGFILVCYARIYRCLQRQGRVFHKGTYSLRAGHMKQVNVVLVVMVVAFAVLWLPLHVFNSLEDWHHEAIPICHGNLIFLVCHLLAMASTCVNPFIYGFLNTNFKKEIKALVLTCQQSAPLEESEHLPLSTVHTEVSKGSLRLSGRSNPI

In the case of `O=C(CN1CCC(n2c(=O)[nH]c3ccccc32)CC1)Nc1ccc([N+](=O)[O-])cc1` [Compound 355, N-(4-Nitro-phenyl)-2-[4-(2-oxo-2,3-dihyro-benzoimidazol-1-yl)-piperidin-1-yl]-acetamide, reference compound], the IC50 on Human NPY1 receptor is over 5000 nM; at Human NPY5 receptor (setting [1]), 200 nM; on Rat NPY5 receptor (setting [2]), 190 nM; at human Y4/PP1 receptor, over 5000 nM; at Y2 receptor, over 5000 nM.

Consider `Nc1cc(S(=O)(=O)c2ccccc2)ccc1NC(=O)CN1CCC(n2c(=O)[nH]c3ccccc32)CC1` [Compound 335, N-(2-Amino-4-benzenesulfonyl-phenyl)-2-[4-(2-oxo-2,3-dihydro-benzoimidazol-1-yl)-piperidin-1-yl]-acetamide, reference compound], for which the IC50 at Human NPY1 receptor was over 5000 nM; at Human NPY5 receptor (setting [1]), 110 nM; on Rat NPY5 receptor (setting [2]) it was 98 nM; at human Y4/PP1 receptor it was over 5000 nM; at Y2 receptor, over 5000 nM.

With `O=C(Nc1ccc(C2CCCCC2)cc1)C(c1ccccc1)N1CCC(n2c(=O)[nH]c3ccccc32)CC1` (stereo not shown) [Compound 313, N-(4-Cyclohexyl-phenyl)-2-[4-(2-oxo-2,3-dihydro-benzoimidazol-1-yl)-piperidin-1-yl]-2-phenyl-acetamide], the IC50 at Human NPY1 receptor was over 5000 nM; on Human NPY5 receptor (hNPY5 IC50, [125I]PYY) it was 35 nM; at Rat NPY5 receptor (rNPY5 IC50, [125I]PYY), 20 nM; at human Y4/PP1 receptor, over 5000 nM; at Y2 receptor, over 5000 nM.

Regarding `O=C(CN1CCC(n2c(=O)[nH]c3ccccc32)CC1)NCc1ccc(F)cc1F` [Compound 332, N-(2,4-Difluoro-benzyl)-2-[4-2(oxo-2,3-dihydro-benzoimidazol-1-yl)-piperidin-1-yl]-acetamide, reference compound], the IC50 at Human NPY1 receptor was over 5000 nM; at Human NPY5 receptor (setting [1]) it was 610 nM; on Rat NPY5 receptor (setting [2]), 530 nM; on Y2 receptor, over 5000 nM.

`NC(=O)c1ccc(NC(=O)CN2CCC(n3c(=O)[nH]c4ccccc43)CC2)cc1` [Compound 350, 4-(2-[4-(2-Oxo-2,3-dihydro-benzoimidazol-1-yl)-piperidin-1-yl]-acetylamino)-benzamide, reference compound]: the IC50 at Human NPY1 receptor is over 5000 nM; at Human NPY5 receptor (setting [1]) it was 2300 nM; at Rat NPY5 receptor (setting [2]), 1400 nM; on human Y4/PP1 receptor, over 5000 nM; at Y2 receptor, over 5000 nM.

For the molecule `O=C(CN1CCC(n2c(=O)[nH]c3ccccc32)CC1)Nc1ccccc1-c1ccccc1` [Compound 324, N-Biphenyl-2-yl-2-[4-(2-oxo-2,3-dihydro-benzoimidazol-1-yl)-piperidin-1-yl]-acetamide; hydrochloride], the IC50 on Human NPY1 receptor is over 5000 nM; at Human NPY5 receptor (setting [1]), 390 nM; on Rat NPY5 receptor (setting [2]) it was 690 nM; on human Y4/PP1 receptor it was over 5000 nM; at Y2 receptor, over 5000 nM.

`CCN(CC)c1ccc(NC(=O)CN2CCC(n3c(=O)[nH]c4ccccc43)CC2)cc1` [Compound 336, N-(4-Diethylamino-phenyl)-2-[4-(2-oxo-2,3-dihydro-benzoimidazol-1-yl)-piperidin-1-yl]-acetamide, reference compound]: the IC50 on Human NPY1 receptor was over 5000 nM; at Human NPY5 receptor (setting [1]), 220 nM; at Rat NPY5 receptor (setting [2]), 205 nM; at human Y4/PP1 receptor, over 5000 nM; on Y2 receptor it was over 5000 nM.

Take `O=C(CN1CCOCC1)Nc1ccc(C2CCCCC2)cc1` [Compound 362, N-(4-Cyclohexyl-phenyl)-2-morpholin-4-yl-acetamide, reference compound]: the IC50 is over 5000 nM on Human NPY1 receptor, 200 nM on Human NPY5 receptor (setting [1]), 115 nM at Rat NPY5 receptor (setting [2]) and over 5000 nM at human Y4/PP1 receptor.

Turning to `O=C(CN1CCC(n2c(=O)[nH]c3ccccc32)CC1)Nc1ccc2cn[nH]c2c1` [Compound 344, N-(1H-Indazol-6-yl)-2-[4-(2-oxo-2,3-dihydro-benzoimidazol-1-yl)-piperidin-1-yl]-acetamide, reference compound], the IC50 at Human NPY1 receptor is over 5000 nM; on Human NPY5 receptor (setting [1]) it was 2700 nM; at Rat NPY5 receptor (setting [2]), 1700 nM; on human Y4/PP1 receptor, over 5000 nM; on Y2 receptor, over 5000 nM.

Take `O=C(CN1CCC(n2c(=O)[nH]c3ccccc32)CC1)Nc1cccc(-c2ccccc2)c1` [Compound 323, N-Biphenyl-3-yl-2-[4-(2-oxo-2,3-dihydro-benzoimidazol-1-yl)-piperidin-1 yl]-acetamide; hydrochloride]: the IC50 on Human NPY1 receptor was over 5000 nM; at Human NPY5 receptor (setting [1]), 26 nM; on Rat NPY5 receptor (setting [2]), 26 nM; on human Y4/PP1 receptor, over 5000 nM.

As for `O=C(CN1CCC(n2c(=O)[nH]c3ccccc32)CC1)Nc1cccc2ccc(O)cc12` [Compound 340, reference compound], the IC50 is over 5000 nM on Human NPY1 receptor, 227 nM at Human NPY5 receptor (setting [1]), over 5000 nM at human Y4/PP1 receptor and over 5000 nM on Y2 receptor.

Regarding `O=C(CN1CCC(n2c(=O)[nH]c3ccccc32)CC1)Nc1ccc(Nc2ccccc2)cc1` [Compound 337, 2-[4-(2-Oxo-2,3-dihydro-benzoimidazol-1-yl)-piperidin-1-yl]-N-(4-phenylamino-phenyl)-acetamide, reference compound], the IC50 on Human NPY1 receptor is over 5000 nM; at Human NPY5 receptor (setting [1]) it was 96 nM; on Rat NPY5 receptor (setting [2]), 108 nM; on human Y4/PP1 receptor, over 5000 nM.

These data come from patent US6410792B1, “Amide derivatives and methods for using the same as selective neuropeptide Y receptor antagonists” (Bayer Corporation, priority 1997, dated 2002).
